The structures appear in SMILES notation.

In assay [1] the target is T1, PRMT5 (Homo sapiens, UniProt O14744).
T1 construct: purchased Viva (custom protein)
The assay is described as follows: PRMT5 biochemical IC50 assay with MTA as cofactor. The note with it: PRMT5, MTA as cofactor; read-out: MTA IC50.

Assay [2] concerns the target T1, PRMT5. The assay is described as follows: PRMT5 biochemical IC50 assay with SAM as cofactor. The note with it: PRMT5, SAM as cofactor; read-out: SAM IC50.
The target of assay [3] is T1, PRMT5. Briefly: PRMT5 biochemical IC50 assay with no cofactor. The note with it: PRMT5, no cofactor. An excerpt: Table 1 indicates IC50 values (μM) against PRMT5 for exemplary compounds in the presence of SAM as cofactor, with no cofactor, and with MTA as cofactor, respectively (columns 4-6). […] Ki values can be calculated from the IC50 values as described in the Examples section. As detailed in the Examples section, for the assay performed in the presence of SAM, IC50=Ki×1.5 (Ki=IC50/1.5).

For assay [4], the system named is HAP1 MTAP-deleted cell line. Briefly: Viability assay, MTAP-deleted cell line. The class given is cell-based. The text has this:
Table 1 additionally indicates IC50 values in a viability assay for the MTAP-deleted cell line (column 10), indicating the effect of treatment with compound on cell survival.

For assay [5], the system named is HAP1 MTAP-deleted cell line. The assay is described as follows: SDMA in-cell western assay, HAP1 MTAP-deleted. The class given is cell-based. The note with it: for MTAP intact/deleted ratio: SDMA in-cell western; for IC50: Homo sapiens. An excerpt:
Table 1 also indicates IC50 values in an MTAP-isogenic cell line pair for exemplary compounds in an SDMA in-cell western assay (columns 7-8). HAP1 MTAP-intact is a cell line in which endogenous levels of MTAP are expressed, and HAP1 MTAP-deleted is an MTAP-null cell line.

The mark [6] stands for this setting: read-out: No Cofactor/ rel IC50.
Setting [7] is: Homo sapiens, HAP1, read-out: HAP1 MTAP deleted viability.

T1 sequence (O14744 whole entry): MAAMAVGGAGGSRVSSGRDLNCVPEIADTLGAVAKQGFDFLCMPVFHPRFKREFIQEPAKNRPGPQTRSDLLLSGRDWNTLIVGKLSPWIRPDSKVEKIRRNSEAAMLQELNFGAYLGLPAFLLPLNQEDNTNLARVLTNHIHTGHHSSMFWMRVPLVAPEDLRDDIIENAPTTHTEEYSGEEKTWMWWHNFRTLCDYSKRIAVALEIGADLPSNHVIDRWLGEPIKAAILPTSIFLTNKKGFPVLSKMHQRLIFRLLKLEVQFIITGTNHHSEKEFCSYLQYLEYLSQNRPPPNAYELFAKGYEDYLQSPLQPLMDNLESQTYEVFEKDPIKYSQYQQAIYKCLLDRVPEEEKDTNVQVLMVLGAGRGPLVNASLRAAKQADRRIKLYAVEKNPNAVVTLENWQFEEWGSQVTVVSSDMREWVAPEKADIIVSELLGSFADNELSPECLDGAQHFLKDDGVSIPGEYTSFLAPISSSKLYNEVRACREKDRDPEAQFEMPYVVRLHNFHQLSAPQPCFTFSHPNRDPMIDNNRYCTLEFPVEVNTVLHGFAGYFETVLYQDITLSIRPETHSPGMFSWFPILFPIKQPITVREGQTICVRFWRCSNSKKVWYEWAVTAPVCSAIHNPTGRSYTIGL
T1 sequence (Q9BQA1 whole entry partner): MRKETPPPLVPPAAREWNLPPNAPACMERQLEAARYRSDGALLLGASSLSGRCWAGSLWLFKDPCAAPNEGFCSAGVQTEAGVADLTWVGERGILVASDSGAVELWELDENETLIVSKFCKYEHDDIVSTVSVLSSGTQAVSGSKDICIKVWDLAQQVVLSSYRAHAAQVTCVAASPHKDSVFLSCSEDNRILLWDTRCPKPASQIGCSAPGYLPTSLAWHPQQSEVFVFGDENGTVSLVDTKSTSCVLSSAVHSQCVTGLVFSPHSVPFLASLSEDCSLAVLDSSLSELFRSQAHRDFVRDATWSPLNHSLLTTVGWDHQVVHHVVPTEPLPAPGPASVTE

With `NC(=O)c1cncc(NC(=O)C(=O)N2C[C@@H](CO)CC[C@H]2c2ccccc2)c1` (racemic) [Compound 285, 5-(2-(5-(hydroxymethyl)-2-phenylpiperidin-1-yl)-2-oxoacetamido)nicotinamide], the IC50 on PRMT5 [1] was 50 to 500 nM; at PRMT5 [2] it was above 500 nM; on PRMT5 [3] (read-out: No Cofactor/rel IC50) it was above 500 nM.
With `NC(=O)c1cncc(NC(=O)C(=O)N2C[C@H](OC(F)F)CC[C@@H]2c2ccccc2)c1` (racemic) [Compound 400, 5-[[2-[(2R,5R)-5-(Difluoromethoxy)-2-phenyl-1-piperidyl]-2-oxo-acetyl]amino]pyridine-3-carboxamide], the results for the IC50 at PRMT5 [1], on PRMT5 [2] and on PRMT5 [3] (read-out: No Cofactor/rel IC50) were 50 to 500 nM, above 500 nM and above 500 nM, respectively.
With `NC(=O)c1cncc(NC(=O)C(=O)N2C[C@H](OC(F)(F)F)CC[C@H]2c2ccccc2)c1` (racemic) [Compound 411, 5-[[2-Oxo-2-[2-phenyl-5-(trifluoromethoxy)-1-piperidyl]acetyl]amino]pyridine-3-carboxamide], the IC50 is 50 to 500 nM at PRMT5 [1], above 500 nM on PRMT5 [2] and above 500 nM at PRMT5 [3] (read-out: No Cofactor/rel IC50).
For `Cc1cc(NC(=O)C(=O)N2C[C@H](C)CC[C@H]2c2ccc3c(c2)CCC(=O)N3)cnc1C(F)(F)F` (racemic) [Compound 650, 2-[(2R,5S)-5-Methyl-2-(2-oxo-3,4-dihydro-1H-quinolin-6-yl)-1-piperidyl]-N-[5-methyl-6-(trifluoromethyl)-3-pyridyl]-2-oxo-acetamide], the IC50 on PRMT5 [1], on PRMT5 [2] and at PRMT5 [3] (read-out: No Cofactor/rel IC50) was 50 to 500 nM in each case.
Regarding `Cc1cc(NC(=O)C(=O)N2CCC(N(C)C)C[C@H]2c2ccccc2)cnc1N` (mixture of isomers) [Compound 975, N-(6-amino-5-methyl-3-pyridyl)-2-[(2S,4S)-4-(dimethylamino)-2-phenyl-1-piperidyl]-2-oxo-acetamide], the IC50 at PRMT5 [2] and on PRMT5 [3] (read-out: No Cofactor/rel IC50) was above 500 nM in each case.
With `CNc1ccc([C@@H]2CC(F)(F)[C@@H](C)CN2C(=O)C(=O)Nc2cnc(N)c(C)c2)cn1` (racemic) [Compound 1054], the IC50 on PRMT5 [1], on PRMT5 [2] and at PRMT5 [3] (read-out: No Cofactor/rel IC50) was 50 to 500 nM each time.
As to `CCc1cc(NC(=O)C(=O)N2C[C@@H](C)[C@@H](OC(C)C)C[C@@H]2c2ccc3scnc3c2)cnc1N` (racemic) [Compound 1235], the IC50 in assay [4] (viability assay, MTAP-deleted cell line, read-out: HAP1 MTAP deleted viability) was below 1000 nM. Further, in assay [5] (IC50 ratio HAP1 MTAP-intact vs HAP1 MTAP-deleted), the MTAP intact/deleted ratio result was “A (an IC50 ratio greater than or equal to 10 fold)”.
In the case of `Cc1ccc([C@H]2CC[C@H](C)CN2C(=O)C(=O)Nc2cncc(C)c2)cc1` (single isomer, unassigned) [Compound 12], the IC50 on PRMT5 [1], on PRMT5 [2] and on PRMT5 [3] (setting [6]) was above 500 nM in each case.
As to `CC[C@H]1CC[C@H](c2ccccc2)N(C(=O)C(=O)Nc2cncc(C)c2)C1` (single isomer, unassigned) [Compound 18], the IC50 at PRMT5 [1] and at PRMT5 [2] was above 500 nM throughout.
On to `Cc1cncc(NC(=O)C(=O)N2C[C@@H](C)CC[C@@H]2c2ccc(C)c(C)c2)c1` (single isomer, unassigned) [Compound 19], for which the IC50 at PRMT5 [1], at PRMT5 [2] and at PRMT5 [3] (setting [6]) was above 500 nM in each case.
For the molecule `CC[C@H]1CC[C@@H](c2ccccc2)N(C(=O)C(=O)Nc2cncc(C)c2)C1` (single isomer, unassigned) [Compound 20], the IC50 on PRMT5 [1], at PRMT5 [2] and at PRMT5 [3] (setting [6]) was above 500 nM in each case.
For the molecule `Cc1cc(NC(=O)C(=O)N2C[C@H](C)CC[C@H]2c2ccccc2)cnc1N` (single isomer, unassigned) [Compound 40], in assay [4] (setting [7]), the IC50 is above 10000 nM.
Same read-out and setting: then `Cc1cncc(NC(=O)C(=O)N2C(C)C(C)CC[C@H]2c2ccccc2)c1` (single isomer, unassigned) [Compound 41], with above 10000 nM.
As to `C[C@@H]1CC[C@@H](c2ccccc2)N(C(=O)C(=O)Nc2cncc(C(N)=O)c2)C1` (single isomer, unassigned) [Compound 71], the IC50 in assay [4] (setting [7]) is above 10000 nM; in assay [5] (HAP1, read-out: HAP1 MTAP deleted IC50), above 1000 nM.
Consider `Cc1cc(NC(=O)C(=O)N2CCCC[C@@H]2c2cccnc2)cnc1N` (single isomer, unassigned) [Compound 74], for which the IC50 on PRMT5 [1] was 50 to 500 nM; at PRMT5 [2], above 500 nM; at PRMT5 [3] (setting [6]), above 500 nM.
`Cc1cncc(NC(=O)C(=O)N2CC(C)CC[C@@H]2c2cccc(F)c2)c1` (single isomer, unassigned) [Compound 84]: the IC50 at PRMT5 [1], at PRMT5 [2] and at PRMT5 [3] (setting [6]) was above 500 nM throughout.
As to `C[C@@H]1CC[C@H](c2cccnc2)N(C(=O)C(=O)Nc2cncc(C(N)=O)c2)C1` (single isomer, unassigned) [Compound 98], the IC50 on PRMT5 [1], on PRMT5 [2] and at PRMT5 [3] (setting [6]) was above 500 nM throughout.
As to `Cc1cc(NC(=O)C(=O)N2C[C@@H](C)CC[C@@H]2c2cccs2)cnc1N` (single isomer, unassigned) [Compound 122], the IC50 at PRMT5 [1], at PRMT5 [2] and on PRMT5 [3] (setting [6]) was above 500 nM in each case.
On to `C[C@@H]1CC[C@H](C2CCCCC2)N(C(=O)C(=O)Nc2cncc(C(N)=O)c2)C1` (single isomer, unassigned) [Compound 127], for which the IC50 at PRMT5 [1], on PRMT5 [2] and on PRMT5 [3] (setting [6]) was above 500 nM in each case.
Take `C[C@@H]1CC[C@@H](C2CCCCC2)N(C(=O)C(=O)Nc2cncc(C(N)=O)c2)C1` (single isomer, unassigned) [Compound 130]: the IC50 on PRMT5 [1], at PRMT5 [2] and on PRMT5 [3] (setting [6]) was above 500 nM throughout.
Turning to `Cc1cc(NC(=O)C(=O)N2C[C@@H](C)CC[C@@H]2C2CCCCC2)cnc1N` (single isomer, unassigned) [Compound 152], the IC50 at PRMT5 [1], on PRMT5 [2] and at PRMT5 [3] (setting [6]) was above 500 nM in each case.
As for `C[C@H]1C[C@@H](C)[C@H](c2ccccc2)N(C(=O)C(=O)Nc2cncc(C(N)=O)c2)C1` (single isomer, unassigned) [Compound 275, 5-(2-(3,5-dimethyl-2-phenylpiperidin-1-yl)-2-oxoacetamido)nicotinamide], the IC50 on PRMT5 [1], at PRMT5 [2] and on PRMT5 [3] (read-out: No Cofactor/rel IC50) was above 500 nM each time.
As for `C[C@@H]1C[C@@H](C)[C@@H](c2ccccc2)N(C(=O)C(=O)Nc2cncc(C(N)=O)c2)C1` (single isomer, unassigned) [Compound 286, 5-(2-(3,5-dimethyl-2-phenylpiperidin-1-yl)-2-oxoacetamido)nicotinamide], the IC50 at PRMT5 [1], at PRMT5 [2] and at PRMT5 [3] (read-out: No Cofactor/rel IC50) was above 500 nM each time.
`Cc1cc(NC(=O)C(=O)N2C[C@H](C)[C@H](C)C[C@@H]2c2ccccc2)cnc1N` (single isomer, unassigned) [Compound 299]: the IC50 on PRMT5 [1], at PRMT5 [2] and at PRMT5 [3] (read-out: No Cofactor/rel IC50) was above 500 nM each time.
Regarding `Cc1cc(NC(=O)C(=O)N2C[C@H](C)[C@@H](C)C[C@@H]2c2ccccc2)cnc1N` (single isomer, unassigned) [Compound 305], the IC50 at PRMT5 [1], at PRMT5 [2] and at PRMT5 [3] (read-out: No Cofactor/rel IC50) was above 500 nM in each case.
With `Cc1cc(NC(=O)C(=O)N2C[C@@H](C)CC[C@@H]2c2cccnc2)cnc1N` (single isomer, unassigned) [Compound 309], the IC50 at PRMT5 [1], at PRMT5 [2] and at PRMT5 [3] (read-out: No Cofactor/rel IC50) was above 500 nM throughout.
With `Cc1cc([C@H]2CC[C@H](C)CN2C(=O)C(=O)Nc2cncc(C(N)=O)c2)ccc1O` (single isomer, unassigned) [Compound 330], the IC50 at PRMT5 [1], at PRMT5 [2] and at PRMT5 [3] (read-out: No Cofactor/rel IC50) was above 500 nM each time.
As to `COc1ncc(NC(=O)C(=O)N2C[C@H](C)CC[C@H]2C2CCCCC2)cc1C(N)=O` (single isomer, unassigned) [Compound 370], the IC50 at PRMT5 [1], at PRMT5 [2] and on PRMT5 [3] (read-out: No Cofactor/rel IC50) was above 500 nM each time.
Turning to `Cc1cc(NC(=O)C(=O)N2C[C@@H](C)CC[C@@H]2c2ccc(C(F)F)cc2)cnc1N` (single isomer, unassigned) [Compound 410], in assay [4] (setting [7]), the IC50 was above 10000 nM.
As for `Cc1cc(NC(=O)C(=O)N2C[C@H](C)CC[C@H]2c2ccc3c(c2)CC(=O)N3)cnc1N` (single isomer, unassigned) [Compound 677], the IC50 in assay [4] (setting [7]) was above 10000 nM.
Regarding `COc1ncc(NC(=O)C(=O)N2C[C@@H](C)CC[C@@H]2c2ccc3sc(CCN(C)C)nc3c2)cc1C(N)=O` (single isomer, unassigned) [Compound 1378], the IC50 was below 1000 nM in assay [4] (Homo sapiens, HAP1, viability, HAP1 MTAP-deleted cell line, read-out: HAP1 MTAP deleted viability); below 100 nM in assay [5] (HAP1, SDMA in-cell western, HAP1 MTAP-deleted, read-out: HAP 1 MTAP deleted IC50); below 50 nM at PRMT5 [3] (setting [6]). Besides, in assay [5] (IC50 ratio HAP1 MTAP-intact / HAP1 MTAP-deleted), the “MTAP intact/deleted ratio” value was “A (an IC50 ratio greater than or equal to 10 fold)”.

Source of the values: patent publication US11999727B2 (Tango Therapeutics, Inc., priority 2020, dated 2024).
